# Laboratory results: patent publication US11090304B2 (Amgen Inc., priority 2018, dated 2021)
# Biological target: GDP-bound KRAS protein (aa 1-169), containing both G12C and C118A amino acid substitutions (Homo sapiens, UniProt P01116, C118A/G12C)
# Assay: Coupled nucleotide exchange assay (SOS-mediated, AlphaScreen)
# Format: biochemical
# Details: 5 min compound pre-incubation
# GDP-bound KRAS protein (aa 1-169), containing both G12C and C118A amino acid substitutions, sequence (P01116 1-169 isoform P01116-2 G12C/C118A): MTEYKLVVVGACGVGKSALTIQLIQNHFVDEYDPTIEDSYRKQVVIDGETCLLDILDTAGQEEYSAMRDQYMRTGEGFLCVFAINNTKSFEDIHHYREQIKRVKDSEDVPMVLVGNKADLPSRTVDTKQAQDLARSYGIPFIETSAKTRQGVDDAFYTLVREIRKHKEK
row,Structure (SMILES),Coupled exchange IC50 (5 min)
1,"C=CC(=O)N1CCN(c2nc(=O)n(-c3ccccc3C(C)C)c3nc(N(C)CCO)c(Cl)cc23)[C@@H](C)C1 [Example 69-7, 6-chloro-7-((2-hydroxyethyl)(methyl)amino)-4-((2S)-2-methyl-4-(2-propenoyl)-1-piperazinyl)-1-(2-(2-propanyl)phenyl)pyrido[2,3-d]pyrimidin-2(1H)-one]",48.5 | nda μM
2,"C=CC(=O)N1CCN(c2nc(=O)n(-c3c(C)cccc3C(C)C)c3nc(-c4nc(N)ccc4Cl)c(F)cc23)[C@@H](C)C1 [Example 71-1, 7-(6-Amino-3-chloro-2-pyridinyl)-6-fluoro-1-(2-methyl-6-(2-propanyl)phenyl)-4-((2S)-2-methyl-4-(2-propenoyl)-1-piperazinyl)pyrido[2,3-d]pyrimidin-2(1H)-one]",1.12 | nda μM
3,"C=CC(=O)N1CCN(c2nc(=O)c(-c3ccccc3C)c3cc(-c4ccccc4Br)c(C)nn23)CC1 [Example 81-1, 3-(2-Bromophenyl)-2-methyl-5-(2-methylphenyl)-8-(4-(2-propenoyl)-1-piperazinyl)-6H-pyrimido[1,6-b]pyridazin-6-one]",172 | nda μM
4,"C=CC(=O)N1CCN(c2nc(=O)c(-c3ccccc3C(C)C)c3cc(-c4ccccc4F)c(C)nn23)CC1 [Example 81-2, 3-(2-fluorophenyl)-2-methyl-5-(2-(2-propanyl)phenyl)-8-(4-(2-propenoyl)-1-piperazinyl)-6H-pyrimido[1,6-b]pyridazin-6-one]",14.1 | nda μM
5,"C=CC(=O)N1CCN(c2nc(=O)c(-c3ccccc3C(C)C)c3cc(-c4ccccc4F)c(C)nn23)[C@@H](C)C1 [Example 81-3, 3-(2-fluorophenyl)-2-methyl-8-((2S)-2-methyl-4-(2-propenoyl)-1-piperazinyl)-5-(2-(2-propanyl)phenyl)-6H-pyrimido[1,6-b]pyridazin-6-one]",2.87 | nda μM
6,C=CC(=O)N1C[C@@H](C)N(c2nc(=O)n(-c3c(C(C)C)ncnc3C(C)C)c3nc(-c4ccccc4F)c(Cl)cc23)[C@H](C)C1 [Example 87-3],17.3 | nda μM
7,"C=CC(=O)N1CCN(c2nc(=O)n(-c3ccccc3C(F)(F)F)c3cc(-c4ccccc4F)c(Cl)cc23)[C@@H](C)C1 [Example 93, 6-Chloro-7-(2-fluorophenyl)-4-((2S)-2-methyl-4-(2-propenoyl)-1-piperazinyl)-1-(2-(trifluoromethyl)phenyl)-2(1H)-quinazolinone]",1.59 | nda μM
8,"C=CC(=O)N1CCN(c2nc(=O)n(-c3c(CC)cccc3CC)c3nc(-c4ccccc4F)c(Cl)cc23)[C@@H](C(=O)O)C1 [Example 96, (2R)-1-(6-Chloro-1-(2,6-diethylphenyl)-7-(2-fluorophenyl)-2-oxo-1,2-dihydropyrido[2,3-d]pyrimidin-4-yl)-4-(2-propenoyl)-2-piperazinecarboxylic acid]",4.85 | nda μM
9,"C=CC(=O)N1CCN(c2nc(=O)n(-c3ccccc3)c3nc(-c4c(O)cccc4F)c(Cl)cc23)[C@@H](C)C1 [Example 100, 6-Chloro-7-(2-fluoro-6-hydroxyphenyl)-4-((2S)-2-methyl-4-(2-propenoyl)-1-piperazinyl)-1-phenylpyrido[2,3-d]pyrimidin-2(1H)-one]",3.45 | nda μM
10,"C=CC(=O)N1CCN(c2nc(=O)n(-c3ccccc3C(C)C)c3nc(-c4ccccc4F)c(CC)nc23)[C@@H](C)C1 [Example 108, 6-Ethyl-7-(2-fluorophenyl)-4-((2S)-2-methyl-4-(2-propenoyl)-1-piperazinyl)-1-(2-(2-propanyl)phenyl)-2(1H)-pteridinone]",1 | nda μM
11,"C=CC(=O)N1CCN(c2nc(=O)n(-c3ccccc3C(C)C)c3nc(-c4ccccc4F)c(OC)nc23)[C@@H](C)C1 [Example 109, 7-(2-Fluorophenyl)-6-methoxy-4-((2S)-2-methyl-4-(2-propenoyl)-1-piperazinyl)-1-(2-(2-propanyl)phenyl)-2(1H)-pteridinone]",1.32 | nda μM

# Further lines, results first:
row,Coupled exchange IC50 (5 min),Structure (SMILES)
1,10.8 | nda μM,"C=CC(=O)N1CCN(c2nc(=O)[nH]c3nc(-c4c(O)cccc4F)c(Cl)cc23)[C@@H](C)C1 [Example 119, 6-Chloro-7-(2-fluoro-6-hydroxyphenyl)-4-((2S)-2-methyl-4-(2-propenoyl)-1-piperazinyl)pyrido[2,3-d]pyrimidin-2(1H)-one]"
2,71.1 | nda μM,"C=CC(=O)N1CCN(c2cc(=O)n(CC(C)(C)C)c3nc(-c4ccccc4F)ccc23)[C@@H](C)C1 [Example 120, 1-(2,2-Dimethylpropyl)-7-(2-fluorophenyl)-4-((2S)-2-methyl-4-(2-propenoyl)-1-piperazinyl)-1,8-naphthyridin-2(1H)-one]"
3,14.2 | nda μM,"C=CC(=O)N1CCN(c2cc(=O)n(CC(C)(C)C)c3nc(-c4ccccc4F)c(Cl)cc23)[C@@H](C)C1 [Example 121, 6-chloro-1-(2,2-dimethylpropyl)-7-(2-fluorophenyl)-4-((2S)-2-methyl-4-(2-propenoyl)-1-piperazinyl)-1,8-naphthyridin-2(1H)-one]"
4,5.29 | nda μM,"C=CC(=O)N1CCN(c2cc(=O)n(CC(C)(C)C)c3nc(-c4ccccc4F)c(Cl)cc23)CC1 [Example 122, 6-Chloro-1-(2,2-dimethylpropyl)-7-(2-fluorophenyl)-4-(4-(2-propenoyl)-1-piperazinyl)-1,8-naphthyridin-2(1H)-one]"
5,38.6 | nda μM,"C=CC(=O)N1CCN(c2cc(=O)n(CC(C)(C)C)c3nc(-c4ccccc4F)ccc23)CC1 [Example 123, 1-(2,2-Dimethylpropyl)-7-(2-fluorophenyl)-4-(4-(2-propenoyl)-1-piperazinyl)-1,8-naphthyridin-2(1H)-one]"
6,6.22 | nda μM,"C=CC(=O)N1CC=C(c2cc(=O)n(CC(C)(C)C)c3nc(-c4ccccc4F)c(Cl)cc23)CC1 [Example 124, 6-Chloro-1-(2,2-dimethylpropyl)-7-(2-fluorophenyl)-4-(1-(2-propenoyl)-1,2,3,6-tetrahydro-4-pyridinyl)-1,8-naphthyridin-2(1H)-one]"
7,35.4 | nda μM,"C=CC(=O)N1CCC(c2cc(=O)n(CC(C)(C)C)c3nc(-c4ccccc4F)c(Cl)cc23)CC1 [Example 125, 6-Chloro-1-(2,2-dimethylpropyl)-7-(2-fluorophenyl)-4-(1-(2-propenoyl)-4-piperidinyl)-1,8-naphthyridin-2(1H)-one]"
8,27.2 | nda μM,"C=CC(=O)N1CCN(c2cc(=O)n(-c3ccccc3C(C)C)c3nc(-c4ccccc4F)ccc23)[C@@H](C)C1 [Example 127, 7-(2-fluorophenyl)-4-((2S)-2-methyl-4-(2-propenoyl)-1-piperazinyl)-1-(2-(2-propanyl)phenyl)-1,8-naphthyridin-2(1H)-one]"
9,1.95 | nda μM,"C=CC(=O)N1CCN(c2nc(OC)c(-c3ccccc3C)c3nc(-c4ccccc4F)c(Cl)cc23)[C@@H](C)C1 [Example 134, 1-((3S)-4-(3-Chloro-2-(2-fluorophenyl)-7-methoxy-8-(2-methylphenyl)-1,6-naphthyridin-5-yl)-3-methyl-1-piperazinyl)-2-propen-1-one]"
10,0.497 | nda μM,"C=CC(=O)N1CCN(c2nc(=O)n(-c3c(C)ccnc3C(C)C)c3nc(-c4ccccc4F)c(C)nc23)[C@@H](C)C1 [Example 143, 7-(2-Fluorophenyl)-6-methyl-1-(4-methyl-2-(2-propanyl)-3-pyridinyl)-4-((2S)-2-methyl-4-(2-propenoyl)-1-piperazinyl)-2(1H)-pteridinone]"
11,8.31 | nda μM,"C=CC(=O)N1CCN(c2nc(C)c(C(=O)N(C(C)C)C(C)C)c3nc(-c4ccccc4F)c(Cl)cc23)CC1 [Example 144, 3-Chloro-2-(2-fluorophenyl)-7-methyl-N,N-di(2-propanyl)-5-(4-(2-propenoyl)-1-piperazinyl)-1,6-naphthyridine-8-carboxamide]"
12,38.7 | nda μM,"C=CC(=O)N1CCN(c2nc(C#N)c(-c3ccccc3C(C)C)c3nc(-c4ccccc4F)c(Cl)cc23)CC1 [Example 146, 3-Chloro-2-(2-fluorophenyl)-8-(2-(2-propanyl)phenyl)-5-(4-(2-propenoyl)-1-piperazinyl)-1,6-naphthyridine-7-carbonitrile]"
13,13.6 | nda μM,"C=CC(=O)N1CCN(c2nc(C(N)=O)c(-c3ccccc3C(C)C)c3nc(-c4ccccc4F)c(Cl)cc23)CC1 [Example 147, 3-Chloro-2-(2-fluorophenyl)-8-(2-(2-propanyl)phenyl)-5-(4-(2-propenoyl)-1-piperazinyl)-1,6-naphthyridine-7-carboxamide]"

# Same assay, conditions: 2 h compound pre-incubation
row,Coupled exchange IC50 (2 h),Structure (SMILES)
1,nda | 3.14 μM,"C=CC(=O)N1CCN(c2nc(=O)n(-c3c(CC)cccc3CC)c3nc(-c4c(O)cccc4F)ccc23)[C@@H](C)C1 [Example 107, 1-(2,6-Diethylphenyl)-7-(2-fluoro-6-hydroxyphenyl)-4-((2S)-2-methyl-4-(2-propenoyl)-1-piperazinyl)pyrido[2,3-d]pyrimidin-2(1H)-one]"
2,nda | 18 μM,"C=CC(=O)N1CCN(c2nc(=O)n(-c3ccccc3C(F)(F)F)c3cc(Br)c(Cl)cc23)CC1 [Example 128, 7-Bromo-6-chloro-4-(4-(2-propenoyl)-1-piperazinyl)-1-(2-(trifluoromethyl)phenyl)-2(1H)-quinazolinone]"

# Same assay, conditions: read-out: Coupled exchange IC50 (5 min); 5 min compound pre-incubation
row,IC50,Structure (SMILES)
1,6.34 µM,C=CC(=O)N1CCN(c2nc(CO)c(-c3ccccc3C(C)C)c3nc(-c4ccccc4F)c(Cl)cc23)CC1 [Example 85-1]
2,39 µM,"C=CC(=O)N1CCN(c2nc(=O)n(-c3ccccc3C(C)C)c3nc(-c4ccc[nH]c4=O)c(Cl)cc23)[C@@H](C)C1 [Example 97, 6-Chloro-4-((2S)-2-methyl-4-(2-propenoyl)-1-piperazinyl)-7-(2-oxo-1,2-dihydro-3-pyridinyl)-1-(2-(2-propanyl)phenyl)pyrido[2,3-d]pyrimidin-(1H)-one]"
